Test results reported in ChEMBL document CHEMBL1201862, “PubChem BioAssay data set” (2004).
The source made the active and inactive calls. Cut-off read from the data, not from the text of the source: actives have a measured Ki and inactives only a lower limit.

Key:
[1] = target: Cyclin-dependent kinase 19 (Homo sapiens, UniProt Q9BWU1); test: Navigating the Kinome. Panel member name: CDC2L6; format: functional
Focal adhesion kinase 1 = Focal adhesion kinase 1 (Homo sapiens, UniProt Q05397); format: functional;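 note: measured as one member of a kinome panel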
Sequence of Focal adhesion kinase 1 (Q05397 whole entry): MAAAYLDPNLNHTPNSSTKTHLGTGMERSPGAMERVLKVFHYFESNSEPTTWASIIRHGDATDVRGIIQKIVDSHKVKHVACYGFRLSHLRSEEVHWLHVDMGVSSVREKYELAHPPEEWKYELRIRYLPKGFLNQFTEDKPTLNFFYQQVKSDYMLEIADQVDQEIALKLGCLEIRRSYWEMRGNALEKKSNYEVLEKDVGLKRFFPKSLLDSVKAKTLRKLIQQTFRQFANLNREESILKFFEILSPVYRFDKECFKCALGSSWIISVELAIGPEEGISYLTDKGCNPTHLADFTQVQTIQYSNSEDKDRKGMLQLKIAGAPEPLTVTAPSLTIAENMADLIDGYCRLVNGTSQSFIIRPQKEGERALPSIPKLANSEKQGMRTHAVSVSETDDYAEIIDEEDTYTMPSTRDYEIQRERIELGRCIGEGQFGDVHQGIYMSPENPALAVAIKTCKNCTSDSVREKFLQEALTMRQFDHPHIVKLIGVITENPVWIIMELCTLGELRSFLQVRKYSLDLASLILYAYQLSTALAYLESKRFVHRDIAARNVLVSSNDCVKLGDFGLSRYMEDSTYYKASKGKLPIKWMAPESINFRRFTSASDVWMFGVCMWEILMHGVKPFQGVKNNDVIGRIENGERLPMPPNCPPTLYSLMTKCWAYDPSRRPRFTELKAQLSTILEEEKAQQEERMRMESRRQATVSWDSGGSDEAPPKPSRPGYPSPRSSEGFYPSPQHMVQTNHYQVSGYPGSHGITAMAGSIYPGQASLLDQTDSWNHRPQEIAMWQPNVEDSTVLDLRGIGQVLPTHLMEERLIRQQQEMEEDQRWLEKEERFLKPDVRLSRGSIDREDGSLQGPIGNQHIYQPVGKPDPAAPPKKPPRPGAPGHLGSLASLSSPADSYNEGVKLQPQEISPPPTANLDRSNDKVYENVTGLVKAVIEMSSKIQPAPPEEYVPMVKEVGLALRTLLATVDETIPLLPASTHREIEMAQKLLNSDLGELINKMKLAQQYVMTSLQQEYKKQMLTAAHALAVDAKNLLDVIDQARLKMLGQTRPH

Sequence of Cyclin-dependent kinase 19 (Q9BWU1 whole entry): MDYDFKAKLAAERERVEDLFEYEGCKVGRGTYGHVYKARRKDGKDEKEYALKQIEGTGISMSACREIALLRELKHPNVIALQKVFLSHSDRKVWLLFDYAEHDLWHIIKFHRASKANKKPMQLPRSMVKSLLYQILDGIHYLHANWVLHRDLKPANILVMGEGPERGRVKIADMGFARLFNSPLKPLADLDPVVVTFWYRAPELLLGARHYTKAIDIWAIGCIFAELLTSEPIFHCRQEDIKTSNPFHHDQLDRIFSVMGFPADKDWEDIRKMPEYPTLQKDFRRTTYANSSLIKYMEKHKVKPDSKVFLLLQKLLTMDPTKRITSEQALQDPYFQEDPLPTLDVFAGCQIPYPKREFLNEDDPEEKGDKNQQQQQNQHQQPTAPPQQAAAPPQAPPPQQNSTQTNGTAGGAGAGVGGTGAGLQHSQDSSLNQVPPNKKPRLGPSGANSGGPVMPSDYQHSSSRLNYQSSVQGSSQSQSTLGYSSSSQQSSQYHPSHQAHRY

- Ki [1]: 10 µM (active)
- Ki (Focal adhesion kinase 1): 0.631 µM (active)
Structure (SMILES): COc1cccc(C(=O)Nc2cccc(-c3nc4sccn4c3-c3ccnc(Nc4ccc(N5CCOCC5)cc4)n3)c2)c1
